Among the data in ChEMBL document CHEMBL1135683, “2002 Alfred Burger Award Address in Medicinal Chemistry. Natural products and design: interrelated approaches in drug discovery” (J Med Chem, 2002) are IC50, Ki and inhibition values, retold here.

As a reminder, the IC50 is the concentration that gives 50% inhibition. High values mean weaker potency, low ones greater potency. In general, Ki refers to a measure of affinity in units of concentration, obtained from inhibition or displacement. A low value points to higher affinity. As usually defined, the inhibition is the share of the control response that was lost under treatment. Low readings indicate a weak effect, high ones a strong effect.

Where a SMILES comes first, the peptide text is derived from it. The star is where a group is joined. Octanoyl = CCCCCCCC(=O)*

Assay [1] has as its target T1, Angiotensin-converting enzyme (Homo sapiens, UniProt P12821). The experiment in a line: Inhibition of Angiotensin I converting enzyme (ACE) in Bothrops jararaca venom.
Assay [2] has as its target T1, Angiotensin-converting enzyme. As to the kind of experiment: Inhibitory activity against Angiotensin I converting enzyme (ACE) in venom of Bothrops jararaca. It is filed as tissue-based.
Assay [3] in a line: The compound was evaluated for the inhibition of Glycolate oxidase.
In assay [4] the target is Growth hormone secretagogue receptor type 1 (Homo sapiens, UniProt Q92847). As to the kind of experiment: Ability to displace [125I]ghrelin from cloned human Growth hormone secretagogue receptor type I (GSH1a) expressed in COS-7 cells. Type of assay: cell-based.
For assay [5], the target named is T1, Angiotensin-converting enzyme. As to the kind of experiment: The compound was evaluated for the (%) inhibition of Angiotensin I converting enzyme in venom of Bothrops jararaca at the dose of 10e-4 M. Type of assay: tissue-based.
Assay [6] deals with Somatostatin receptor type 3 (Homo sapiens, UniProt P32745). The experiment in a line: Binding affinity towards Somatostatin receptor type 3 (hsst3).
In assay [7] the target is Somatostatin receptor type 5 (Homo sapiens, UniProt P35346). The experiment in a line: Binding affinity towards Somatostatin receptor type 5 (hsst5).
Assay [8] concerns the target Somatostatin receptor type 1 (Homo sapiens, UniProt P30872). As to the kind of experiment: Binding affinity towards Somatostatin receptor type 1 (hsst1).
The target of assay [9] is Somatostatin receptor type 4 (Homo sapiens, UniProt P31391). As to the kind of experiment: Binding affinity towards Somatostatin receptor type 4 (hsst4).
Somatostatin receptor type 4, sequence (P31391 whole entry): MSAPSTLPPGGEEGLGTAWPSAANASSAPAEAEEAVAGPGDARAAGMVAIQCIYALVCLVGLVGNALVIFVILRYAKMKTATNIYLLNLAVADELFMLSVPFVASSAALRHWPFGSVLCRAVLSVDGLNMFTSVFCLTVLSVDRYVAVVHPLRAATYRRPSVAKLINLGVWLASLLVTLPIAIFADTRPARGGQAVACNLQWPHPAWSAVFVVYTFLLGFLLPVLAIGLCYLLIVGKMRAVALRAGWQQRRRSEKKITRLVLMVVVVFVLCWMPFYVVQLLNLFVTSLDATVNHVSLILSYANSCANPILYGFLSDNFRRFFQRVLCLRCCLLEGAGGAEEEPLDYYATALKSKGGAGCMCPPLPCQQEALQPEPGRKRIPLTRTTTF

T1 sequence (P12821 whole entry): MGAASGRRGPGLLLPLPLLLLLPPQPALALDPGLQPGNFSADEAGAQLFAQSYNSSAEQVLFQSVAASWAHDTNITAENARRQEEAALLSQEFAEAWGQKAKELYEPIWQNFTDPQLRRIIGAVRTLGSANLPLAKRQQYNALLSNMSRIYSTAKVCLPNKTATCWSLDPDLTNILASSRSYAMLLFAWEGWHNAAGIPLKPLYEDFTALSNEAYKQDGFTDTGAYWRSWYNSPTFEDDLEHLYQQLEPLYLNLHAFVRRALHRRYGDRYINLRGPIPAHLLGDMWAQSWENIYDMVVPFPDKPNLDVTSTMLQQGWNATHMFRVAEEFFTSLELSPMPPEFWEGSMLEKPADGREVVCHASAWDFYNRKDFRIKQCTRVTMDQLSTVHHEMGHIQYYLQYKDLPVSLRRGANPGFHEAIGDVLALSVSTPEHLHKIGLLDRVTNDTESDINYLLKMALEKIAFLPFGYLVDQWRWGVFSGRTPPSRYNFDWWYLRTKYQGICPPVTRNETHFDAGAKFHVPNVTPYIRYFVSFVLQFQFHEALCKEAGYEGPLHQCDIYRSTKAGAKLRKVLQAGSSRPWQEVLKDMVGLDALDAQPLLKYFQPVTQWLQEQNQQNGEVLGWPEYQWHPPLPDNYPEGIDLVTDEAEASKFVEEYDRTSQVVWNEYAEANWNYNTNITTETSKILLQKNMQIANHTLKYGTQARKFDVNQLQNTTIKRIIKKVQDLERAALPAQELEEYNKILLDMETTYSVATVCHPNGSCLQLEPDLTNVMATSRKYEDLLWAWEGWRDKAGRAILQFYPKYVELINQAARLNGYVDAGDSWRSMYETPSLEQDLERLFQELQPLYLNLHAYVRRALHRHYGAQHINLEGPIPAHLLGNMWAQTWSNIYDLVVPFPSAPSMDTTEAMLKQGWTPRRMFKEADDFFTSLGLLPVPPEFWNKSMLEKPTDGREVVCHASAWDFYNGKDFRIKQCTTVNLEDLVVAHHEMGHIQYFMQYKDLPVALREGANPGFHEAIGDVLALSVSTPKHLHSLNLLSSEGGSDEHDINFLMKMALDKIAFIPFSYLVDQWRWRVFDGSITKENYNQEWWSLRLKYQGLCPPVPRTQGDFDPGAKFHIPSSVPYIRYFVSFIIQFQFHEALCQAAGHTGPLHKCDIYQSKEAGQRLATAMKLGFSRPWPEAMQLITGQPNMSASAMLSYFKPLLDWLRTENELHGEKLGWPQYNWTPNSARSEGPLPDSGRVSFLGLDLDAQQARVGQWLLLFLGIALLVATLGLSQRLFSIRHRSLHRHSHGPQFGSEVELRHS
Growth hormone secretagogue receptor type 1, sequence (Q92847 whole entry): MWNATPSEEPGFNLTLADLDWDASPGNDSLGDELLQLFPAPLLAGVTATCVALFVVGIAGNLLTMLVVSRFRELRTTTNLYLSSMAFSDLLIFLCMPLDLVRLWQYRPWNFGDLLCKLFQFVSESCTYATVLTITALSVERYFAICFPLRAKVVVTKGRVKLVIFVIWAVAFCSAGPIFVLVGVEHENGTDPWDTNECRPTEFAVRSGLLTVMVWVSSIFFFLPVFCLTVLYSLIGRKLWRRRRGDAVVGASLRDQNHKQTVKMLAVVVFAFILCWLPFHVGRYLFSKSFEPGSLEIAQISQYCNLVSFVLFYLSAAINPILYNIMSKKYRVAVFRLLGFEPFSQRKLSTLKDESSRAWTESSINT
Somatostatin receptor type 3, sequence (P32745 whole entry): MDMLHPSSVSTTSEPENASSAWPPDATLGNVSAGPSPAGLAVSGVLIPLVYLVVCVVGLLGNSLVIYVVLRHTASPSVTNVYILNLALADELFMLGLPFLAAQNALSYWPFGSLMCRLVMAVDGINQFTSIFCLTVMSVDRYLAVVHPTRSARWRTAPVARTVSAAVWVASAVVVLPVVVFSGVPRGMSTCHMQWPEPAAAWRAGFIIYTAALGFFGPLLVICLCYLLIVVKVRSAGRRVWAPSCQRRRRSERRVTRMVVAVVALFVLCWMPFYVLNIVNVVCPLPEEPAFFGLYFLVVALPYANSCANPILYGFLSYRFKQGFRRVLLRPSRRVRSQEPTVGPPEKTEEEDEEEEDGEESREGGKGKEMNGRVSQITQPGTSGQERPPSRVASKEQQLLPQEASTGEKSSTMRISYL
Somatostatin receptor type 5, sequence (P35346 whole entry): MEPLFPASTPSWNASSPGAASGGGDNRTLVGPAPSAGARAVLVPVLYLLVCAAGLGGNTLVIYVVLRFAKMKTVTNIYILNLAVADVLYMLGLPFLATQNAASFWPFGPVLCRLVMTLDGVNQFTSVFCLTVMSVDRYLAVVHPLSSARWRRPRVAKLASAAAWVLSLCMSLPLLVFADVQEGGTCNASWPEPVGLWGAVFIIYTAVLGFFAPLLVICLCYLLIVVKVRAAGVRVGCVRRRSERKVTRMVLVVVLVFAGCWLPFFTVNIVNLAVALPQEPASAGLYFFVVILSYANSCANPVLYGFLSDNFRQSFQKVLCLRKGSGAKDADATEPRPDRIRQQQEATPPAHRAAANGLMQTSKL
Somatostatin receptor type 1, sequence (P30872 whole entry): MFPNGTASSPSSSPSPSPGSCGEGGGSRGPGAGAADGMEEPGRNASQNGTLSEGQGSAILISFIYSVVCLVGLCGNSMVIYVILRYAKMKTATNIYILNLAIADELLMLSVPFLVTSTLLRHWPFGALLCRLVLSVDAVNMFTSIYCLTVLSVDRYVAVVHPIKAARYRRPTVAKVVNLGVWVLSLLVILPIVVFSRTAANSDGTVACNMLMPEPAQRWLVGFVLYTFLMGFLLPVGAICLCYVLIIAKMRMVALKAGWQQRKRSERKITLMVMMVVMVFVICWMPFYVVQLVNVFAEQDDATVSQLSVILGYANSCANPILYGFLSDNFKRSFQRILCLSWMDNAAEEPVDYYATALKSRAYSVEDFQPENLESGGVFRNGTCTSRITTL

Compound `O=C(O)CCCC(=O)N1CCC[C@H]1C(=O)O` showed an IC50 in assay [1] of 70000 nM.

`O=CC(Cc1ccccc1)NC(CCc1ccccc1)C(=O)O` (stereo unspecified): in assay [2], affinity was put at a Ki of 50000 nM.

`O=C(O)/C(O)=C\C(=O)c1ccc(-c2ccc(Br)cc2)cc1` gave an IC50 in assay [3] of 60 nM.

On to `CCCCCCCC(=O)OC[C@H](NC(=O)[C@H](CO)NC(=O)CN)C(=O)N[C@@H](Cc1ccccc1)C(=O)N[C@@H](CC(C)C)C(=O)N[C@@H](CO)C(=O)N1CCC[C@H]1C(=O)N[C@@H](CCC(=O)O)C(=O)N[C@@H](Cc1c[nH]cn1)C(=O)N[C@@H](CCC(N)=O)C(=O)N[C@@H](CCCN=C(N)N)C(=O)N[C@H](C(=O)N[C@@H](CCC(N)=O)C(=O)N[C@@H](CCC(N)=O)C(=O)N[C@@H](CCCN=C(N)N)C(=O)N[C@@H](CCCCN)C(=O)N[C@@H](CCC(=O)O)C(=O)N[C@@H](CO)C(=O)N[C@@H](CCCCN)C(=O)N[C@@H](CCCCN)C(=O)N1CCC[C@H]1C(=O)N1CCC[C@H]1C(=O)N1CCC[C@H]1C(=O)N[C@@H](C)C(=O)N[C@@H](CCCCN)C(=O)N[C@@H](CC(C)C)C(=O)N[C@@H](CCC(N)=O)C(=O)N1CCC[C@H]1C(=O)N[C@@H](CCCN=C(N)N)C(=O)O)C(C)C` (H-GSS(Octanoyl)FLSPEHQRVQQRKESKKPPPAKLQPR-OH), for which the half-inhibitory concentration (IC50) in [4] was found to be 0.71 nM.

`CC(CCC(=O)N1CCC[C@H]1C(=O)O)C(=O)O` (stereo partly specified) displayed an IC50 in [1] of 260000 nM.

As to `O=C(O)CCC(=O)N1CCC[C@H]1C(=O)O`, the inhibition in [5] was found to be 43%.

Compound H-EKWAP-OH returned an IC50 in assay [1] of 60 nM.

In the case of `C[C@@H](c1c[nH]c2ccccc12)[C@@H](NC(=O)N1CCC(n2c(=O)[nH]c3ccccc32)CC1)C(=O)N[C@@H](CCCCN)C(=O)OC(C)(C)C`, the Ki in [6] came out at 31 nM; in [7] it was 163 nM; in assay [8] it was 2390 nM; in [9], 81 nM.
